{"source": "patent US9540379B2", "about": "(priority 2011, dated 2017)", "data": [{"target": "PDE10A (Homo sapiens (Human), UniProt Q9Y233)", "sequence (Q9Y233 other isoform, or with tags, fused parts or gaps)": "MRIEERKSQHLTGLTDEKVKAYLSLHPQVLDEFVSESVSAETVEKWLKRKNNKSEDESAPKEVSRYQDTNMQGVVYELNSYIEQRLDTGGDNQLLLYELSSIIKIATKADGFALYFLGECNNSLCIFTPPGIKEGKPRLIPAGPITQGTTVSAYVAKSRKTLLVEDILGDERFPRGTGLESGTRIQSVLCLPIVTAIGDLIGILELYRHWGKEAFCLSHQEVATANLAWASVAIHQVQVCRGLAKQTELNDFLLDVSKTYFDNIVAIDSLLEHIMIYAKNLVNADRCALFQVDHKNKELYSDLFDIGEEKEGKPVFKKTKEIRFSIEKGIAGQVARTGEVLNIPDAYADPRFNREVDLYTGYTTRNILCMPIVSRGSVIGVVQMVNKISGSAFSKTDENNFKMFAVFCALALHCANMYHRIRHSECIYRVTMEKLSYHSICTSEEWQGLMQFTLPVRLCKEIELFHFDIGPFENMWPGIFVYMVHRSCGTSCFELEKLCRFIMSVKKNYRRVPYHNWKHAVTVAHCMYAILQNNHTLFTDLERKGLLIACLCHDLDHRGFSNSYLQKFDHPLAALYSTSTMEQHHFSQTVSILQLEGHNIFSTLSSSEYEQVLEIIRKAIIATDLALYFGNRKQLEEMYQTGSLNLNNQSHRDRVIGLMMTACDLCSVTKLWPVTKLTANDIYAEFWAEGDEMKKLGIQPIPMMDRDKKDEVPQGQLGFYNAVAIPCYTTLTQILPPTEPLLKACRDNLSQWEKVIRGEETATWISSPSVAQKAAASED", "conditions": "read-out: Inhibition of PDE10A, IC50", "units": {"IC50": "nM"}, "description": "Inhibition of Recombinant PDE10A (Expressed in Baculovirus/SF21 Cells)\nPDE activity was determined in a one step procedure in microtiter plates. The reaction mixture of 100 μl contained 50 mM Tris-HCl/5 mM MgCl2 buffer (pH=7.4, Sigma, Deisenhofen, Germany; Merck, Darmstadt, Germany) 0.1 μM [3H]-cAMP (PerkinElmer, Shelton, USA) and the enzyme. Non-specific enzyme activity was determined without the enzyme.\nThe reaction was initiated by addition of the substrate solution and was carried out at 37° C. for 30 minutes. Enzymatic activity then was stopped by addition of 25 μl Ysi-SPA-beads (PerkinElmer, Shelton, USA). One h later the mixture was measured in a liquid scintillation counter for microtiter plates (Microbeta Trilux). The Biomek 2000 (Beckman) was used routinely for pipetting of the incubation mixture. […] For determination of IC50 values the Hill-plot, 2-parameter-model, was used.", "values": [{"smiles": "CCCCCCOc1ccc(F)c(-c2nnc3c(C)nc4cc(Cl)ccc4n23)c1", "note": "[Example 24, 7-Chloro-1-(2-fluoro-5-hexyloxy-phenyl)-4-methyl-[1,2,4]triazolo[4,3-a]quinoxaline]", "IC50": "> 1000"}, {"smiles": "CCCCOc1ccc(C)c(-c2nnc3c(C)nc4cc(Cl)ccc4n23)c1", "note": "[Example 25, 1-(5-Butoxy-2-methyl-phenyl)-7-chloro-4-methyl-[1,2,4]triazolo[4,3-a]quinoxaline]", "IC50": "> 1000"}, {"smiles": "CCCCCCOc1ccc(C)c(-c2nnc3c(C)nc4cc(Cl)ccc4n23)c1", "note": "[Example 26, 7-Chloro-1-(5-hexyloxy-2-methyl-phenyl)-4-methyl-[1,2,4]triazolo[4,3-a]quinoxaline]", "IC50": "> 1000"}, {"smiles": "Cc1nc2ccccc2n2c(-c3ccccc3F)nnc12", "note": "[Example 30, 1-(2-Fluoro-phenyl)-4-methyl-[1,2,4]triazolo[4,3-a]quinoxaline]", "IC50": 346}, {"smiles": "Cc1nc2ccccc2n2c(-c3cc(Cl)ccc3Cl)nnc12", "note": "[Example 34, 1-(2,5-Dichloro-phenyl)-4-methyl-[1,2,4]triazolo[4,3-a]quinoxaline]", "IC50": 330}, {"smiles": "Cc1nc2ccccc2n2c(-c3cccc(Cl)c3Cl)nnc12", "note": "[Example 35, 1-(2,3-Dichloro-phenyl)-4-methyl-[1,2,4]triazolo[4,3-a]quinoxaline]", "IC50": 360}, {"smiles": "Cc1nc2ccccc2n2c(-c3cc(OCC4CCC4)ccc3Cl)nnc12", "note": "[Example 47, 1-(2-Chloro-5-cyclobutylmethoxy-phenyl)-4-methyl-[1,2,4]triazolo[4,3-a]quinoxaline]", "IC50": "> 1000"}, {"smiles": "Cc1nc2ccccc2n2c(-c3cc(OCC4CC4)ccc3Cl)nnc12", "note": "[Example 48, 1-(2-Chloro-5-cyclopropylmethoxy-phenyl)-4-methyl-[1,2,4]triazolo[4,3-a]quinoxaline]", "IC50": "> 1000"}, {"smiles": "Cc1nc2ccccc2n2c(-c3cc(OCCc4ccccc4)ccc3Cl)nnc12", "note": "[Example 49, 1-(2-Chloro-5-phenethyloxy-phenyl)-4-methyl-[1,2,4]triazolo[4,3-a]quinoxaline]", "IC50": "> 1000"}, {"smiles": "Cc1nc2ccccc2n2c(-c3cc(O)ccc3Cl)nnc12", "note": "[Example 50, 4-Chloro-3-(4-methyl-[1,2,4]triazolo[4,3-a]quinoxalin-1-yl)-phenol]", "IC50": 62}, {"smiles": "Cc1nc2ccc(F)cc2n2c(-c3ccccc3F)nnc12", "note": "[Example 52, 8-Fluoro-1-(2-fluoro-phenyl)-4-methyl-[1,2,4]triazolo[4,3-a]quinoxaline]", "IC50": 553}, {"smiles": "Cc1ncccc1-c1nnc2c(C)nc3ccc(F)cc3n12", "note": "[Example 53, 8-Fluoro-4-methyl-1-(2-methyl-pyridin-3-yl)-[1,2,4]triazolo[4,3-a]quinoxaline]", "IC50": 1000}, {"smiles": "COc1ccc(Cl)c(-c2nnc3c(C)nc4ccc(F)cc4n23)c1", "note": "[Example 56, 1-(2-Chloro-5-methoxy-phenyl)-8-fluoro-4-methyl-[1,2,4]triazolo[4,3-a]quinoxaline]", "IC50": 279}, {"smiles": "Cc1nc2ccc(F)cc2n2c(-c3cc(C(F)(F)F)ccc3Cl)nnc12", "note": "[Example 57, 1-(2-Chloro-5-trifluoromethyl-phenyl)-8-fluoro-4-methyl-[1,2,4]triazolo[4,3-a]quinoxaline]", "IC50": "> 1000"}, {"smiles": "CCCCOc1ccc(F)c(-c2nnc3c(C)nc4ccc(F)cc4n23)c1", "note": "[Example 58, 1-(5-Butoxy-2-fluoro-phenyl)-8-fluoro-4-methyl-[1,2,4]triazolo[4,3-a]quinoxaline]", "IC50": "> 1000"}, {"smiles": "CCCCOc1ccc(Cl)c(-c2nnc3c(C)nc4ccc(F)cc4n23)c1", "note": "[Example 59, 1-(5-Butoxy-2-chloro-phenyl)-8-fluoro-4-methyl-[1,2,4]triazolo[4,3-a]quinoxaline]", "IC50": "> 1000"}, {"smiles": "CCCCCCOc1ccc(F)c(-c2nnc3c(C)nc4ccc(F)cc4n23)c1", "note": "[Example 60, 8-Fluoro-1-(2-fluoro-5-hexyloxy-phenyl)-4-methyl-[1,2,4]triazolo[4,3-a]quinoxaline]", "IC50": "> 1000"}, {"smiles": "COc1ccccc1-c1nnc2c(C)nc3ccc(C(F)(F)F)cc3n12", "note": "[Example 63, 1-(2-Methoxy-phenyl)-4-methyl-8-trifluoromethyl-[1,2,4]triazolo[4,3-a]quinoxaline]", "IC50": 265}, {"smiles": "Cc1nc2ccc(C(F)(F)F)cc2n2c(-c3cccc(Cl)c3Cl)nnc12", "note": "[Example 64, 1-(2,3-Dichloro-phenyl)-4-methyl-8-trifluoromethyl-[1,2,4]triazolo[4,3-a]quinoxaline]", "IC50": 337}, {"smiles": "Cc1nc2ccc(C(F)(F)F)cc2n2c(-c3cc(C(F)(F)F)ccc3Cl)nnc12", "note": "[Example 65, 1-(2-Chloro-5-trifluoromethyl-phenyl)-4-methyl-8-trifluoromethyl-[1,2,4]triazolo[4,3-a]quinoxaline]", "IC50": "> 1000"}, {"smiles": "Cc1nc2ccc(C(F)(F)F)cc2n2c(-c3ccccc3F)nnc12", "note": "[Example 66, 1-(2-Fluorophenyl)-4-methyl-8-trifluoromethyl-[1,2,4]triazolo[4,3-a]quinoxaline]", "IC50": 471}, {"smiles": "CCCCOc1ccc(F)c(-c2nnc3c(C)nc4ccc(C(F)(F)F)cc4n23)c1", "note": "[Example 67, 1-(5-Butoxy-2-fluoro-phenyl)-4-methyl-8-trifluoromethyl-[1,2,4]triazolo[4,3-a]quinoxaline]", "IC50": "> 1000"}, {"smiles": "CCCCCCOc1ccc(F)c(-c2nnc3c(C)nc4ccc(C(F)(F)F)cc4n23)c1", "note": "[Example 68, 1-(2-Fluoro-5-hexyloxy-phenyl)-4-methyl-8-trifluoromethyl-[1,2,4]triazolo[4,3-a]quinoxaline]", "IC50": "> 1000"}, {"smiles": "COc1ccc2c(c1)nc(C)c1nnc(-c3ccccc3F)n12", "note": "[Example 73, 1-(2-Fluoro-phenyl)-7-methoxy-4-methyl-[1,2,4]triazolo[4,3-a]quinoxaline]", "IC50": 223}, {"smiles": "COc1ccc2c(c1)nc(C)c1nnc(-c3ccccc3Cl)n12", "note": "[Example 74, 1-(2-Chloro-phenyl)-7-methoxy-4-methyl-[1,2,4]triazolo[4,3-a]quinoxaline]", "IC50": 68}, {"smiles": "Cc1nc2cc(O)ccc2n2c(-c3ccccc3Cl)nnc12", "note": "[Example 76, 1-(2-Chloro-phenyl)-4-methyl-[1,2,4]triazolo[4,3-a]quinoxalin-7-ol]", "IC50": 274}, {"smiles": "COc1ccc(CCOc2ccc3c(c2)nc(C)c2nnc(-c4ccccc4Cl)n23)cc1OC", "note": "[Example 78, 1-(2-Chloro-phenyl)-7-[2-(3,4-dimethoxy-phenyl)-ethoxy]-4-methyl-[1,2,4]triazolo[4,3-a]quinoxaline]", "IC50": 48}, {"smiles": "Cc1nc2cc(OCc3ccc4ccccc4n3)ccc2n2c(-c3ccccc3Cl)nnc12", "note": "[Example 79, 1-(2-Chloro-phenyl)-4-methyl-7-(quinolin-2-ylmethoxy)-[1,2,4]triazolo[4,3-a]quinoxaline]", "IC50": 1}, {"smiles": "Cc1nc2ccc(OCc3ccc4ccccc4n3)cc2n2c(-c3ccccc3Cl)nnc12", "note": "[Example 80, 1-(2-Chloro-phenyl)-4-methyl-8-(quinolin-2-ylmethoxy)-[1,2,4]triazolo[4,3-a]quinoxaline]", "IC50": 10}, {"smiles": "CC(=O)OCCCCOc1ccc(Cl)c(-c2nnc3c(C)nc4ccccc4n23)c1", "note": "[Example 89, Acetic acid 4-[4-chloro-3-(4-methyl-[1,2,4]triazolo[4,3-a]quinoxalin-1-yl)-phenoxy]-butyl ester]", "IC50": "> 1000"}, {"smiles": "Cc1nc2ccccc2n2c(-c3cc(OCCN4CCOCC4)ccc3Cl)nnc12", "note": "[Example 91, 1-[2-Chloro-5-(2-morpholin-4-yl-ethoxy)-phenyl]-4-methyl-[1,2,4]triazolo[4,3-a]quinoxaline]", "IC50": "> 1000"}, {"smiles": "Cc1nc2ccccc2n2c(-c3cc(OCC(=O)c4ccccn4)ccc3Cl)nnc12", "note": "[Example 93, 2-[4-Chloro-3-(4-methyl-[1,2,4]triazolo[4,3-a]quinoxalin-1-yl)-phenoxy]-1-pyridin-2-yl-ethanone]", "IC50": "> 1000"}, {"smiles": "Cc1nc2ccccc2n2c(-c3cc(OCCN4CCCCC4)ccc3Cl)nnc12", "note": "[Example 95, 1-[2-Chloro-5-(2-piperidin-1-yl-ethoxy)-phenyl]-4-methyl-[1,2,4]triazolo[4,3-a]quinoxaline]", "IC50": "> 1000"}, {"smiles": "Cc1nc2ccccc2n2c(-c3cc(OCCN4CCCC4)ccc3Cl)nnc12", "note": "[Example 96, 1-[2-Chloro-5-(2-pyrrolidin-1-yl-ethoxy)-phenyl]-4-methyl-[1,2,4]triazolo[4,3-a]quinoxaline]", "IC50": "> 1000"}, {"smiles": "Cc1nc2ccccc2n2c(-c3cc(OCCC4CCOCC4)ccc3Cl)nnc12", "note": "[Example 97, 1-{2-Chloro-5-[2-(tetrahydro-pyran-4-yl)-ethoxy]-phenyl}-4-methyl-[1,2,4]triazolo[4,3-a]quinoxaline]", "IC50": "> 1000"}, {"smiles": "Cc1nc2ccccc2n2c(-c3cc(OCC(C)O)ccc3Cl)nnc12", "note": "(stereo not drawn) [Example 100, 1-[4-Chloro-3-(4-methyl-[1,2,4]triazolo[4,3-a]quinoxalin-1-yl)-phenoxy]-propan-2-ol]", "IC50": 784}, {"smiles": "Cc1nc2ccc(Cl)cc2n2c(-c3cc(OCCCO)ccc3Cl)nnc12", "note": "[Example 101, 3-[4-Chloro-3-(8-chloro-4-methyl-[1,2,4]triazolo[4,3-a]quinoxalin-1-yl)-phenoxy]-propan-1-ol]", "IC50": 319}, {"smiles": "Cc1nc2ccc(Cl)cc2n2c(-c3cc(OCC(C)O)ccc3Cl)nnc12", "note": "(stereo not drawn) [Example 102, 1-[4-Chloro-3-(8-chloro-4-methyl-[1,2,4]triazolo[4,3-a]quinoxalin-1-yl)-phenoxy]-propan-2-ol]", "IC50": 611}, {"smiles": "Cc1nc2ccc(Cl)cc2n2c(-c3cc(O)ccc3Cl)nnc12", "note": "[Example 107, 4-Chloro-3-(8-chloro-4-methyl-[1,2,4]triazolo[4,3-a]quinoxalin-1-yl)-phenol]", "IC50": 13}, {"smiles": "COCCOc1ccc(F)c(-c2nnc3cnc4ccccc4n23)c1", "note": "[Example 109, 1-[2-Fluoro-5-(2-methoxy-ethoxy)-phenyl]-[1,2,4]triazolo[4,3-a]quinoxaline]", "IC50": "> 1000"}, {"smiles": "Cc1ccc2nc(C)c3nnc(-c4cc(OCCCC(F)(F)F)ccc4Cl)n3c2c1", "note": "[Example 110, 1-[2-Chloro-5-(4,4,4,-trifluoro-butoxy)-phenyl]-4,8-dimethyl-[1,2,4]triazolo[4,3-a]quinoxaline]", "IC50": "> 1000"}, {"smiles": "Cc1nc2cc(C#N)ccc2n2c(-c3cc(OCCCC(F)(F)F)ccc3Cl)nnc12", "note": "[Example 111, 7-Cyano-1-[2-chloro-5-(4,4,4,-trifluoro-butoxy)-phenyl]-4-methyl-[1,2,4]triazolo[4,3-a]quinoxaline]", "IC50": "> 1000"}]}]}
